This passage reports IC50 and inhibition results from US12202829B2, “Heterocyclic compound” (FIMECS, Inc., priority 2018, dated 2025).

Molecules are shown by their SMILES. Counter-ions that a name gives are not always drawn. Some results are limits rather than exact numbers.

In the first experiment the target is T1, human XIAP_BIR3 domain purified protein (Homo sapiens, UniProt P98170).
T1 construct: purchased R & D
T1 sequence (P98170 252-356 limits assumed): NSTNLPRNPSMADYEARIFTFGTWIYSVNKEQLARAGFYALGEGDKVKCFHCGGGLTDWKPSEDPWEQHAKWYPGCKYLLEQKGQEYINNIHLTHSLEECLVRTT
In words: XIAP binding inhibitory activity, HTRF method with b-Smac ligand. To be noted: second symbol of the cell; read-out: XIAP binding 50% inhibitory concentration (IC50 value). The method in brief:
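HTRF competition: human XIAP BIR3 and C-terminally biotinylated Smac peptide AVPIAQK, each diluted to 90 nM before addition, in HEPES pH 7.5 buffer with NaCl, BSA, Triton X-100. Eu-cryptate anti-His/streptavidin-XL665 detection after ≥4 h at room temperature; inhibition % from 665/615 ratio versus no-compound control.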
Turning to `CN[C@@H](C)C(=O)N[C@H](C(=O)N1CCN(C(=O)c2cc3cc(F)c(F)cc3n2CCOCCOCCOCCO)CC1)C1CCCCC1` [Example 48, (S)—N—((S)-1-Cyclohexyl-2-(4-(5,6-difluoro-1-(2-(2-(2-(2-hydroxyethoxy)ethoxy)ethoxy)ethyl)-1H-indole-2-carbonyl)piperazin-1-yl)-2-oxoethyl)-2-(methylamino)propanamide], the IC50 was in the range of 3 to 30 µM. Regarding `CN[C@@H](C)C(=O)N[C@H](C(=O)N1CCN(C(=O)c2c(C(=O)NCCOCCOCCOc3ccc(NC(=O)C[C@@H]4N=C(c5ccc(Cl)cc5)c5c(sc(C)c5C)-n5c(C)nnc54)cc3)c3cc(F)c(F)cc3n2C)CC1)C1CCCCC1` [Example 78, N-(2-(2-(2-(4-(2-((S)-4-(4-Chlorophenyl)-2,3,9-trimethyl-6H-thieno[3,2-f][1,2,4]triazolo[4,3-a][1,4]diazepin-6-yl)acetamido)phenoxy)ethoxy)ethoxy)ethyl)-2-(4-((S)-2-cyclohexyl-2-((S)-2-(methylamino)propanamido)acetyl)piperazine-1-carbonyl)-5,6-difluoro-1-methyl-1H-indole-3-carboxamide hydrochloride], the IC50 fell in the range of 0.3 to 3 µM.

Take `CN[C@@H](C)C(=O)N[C@H](C(=O)N1CCN(C(=O)c2c(C(=O)NCCOCCOCCNC(=O)C[C@@H]3N=C(c4ccc(Cl)cc4)c4c(sc(C)c4C)-n4c(C)nnc43)c3ccc(OC)cc3n2C)CC1)C1CCCCC1` [Example 72, N-(2-(2-(2-(2-((S)-4-(4-Chlorophenyl)-2,3,9-trimethyl-6H-thieno[3,2-f][1,2,4]triazolo[4,3-a][1,4]diazepin-6-yl)acetamido)ethoxy)ethoxy)ethyl)-2-(4-((S)-2-cyclohexyl-2-((S)-2-(methylamino)propanamido)acetyl)piperazine-1-carbonyl)-6-methoxy-1-methyl-1H-indole-3-carboxamide Hydrochloride]: the IC50 was less than 0.3 µM.

Consider `C[C@@H]1CN(CC(=O)N2CCN(C(=O)c3cc4cc(F)c(F)cc4n3C)C[C@H]2C)[C@@H](COCCOCCOCCO)CN1` [Example 64, 1-((R)-4-(5,6-Difluoro-1-methyl-1H-indole-2-carbonyl)-2-methylpiperazin-1-yl)-2-((2R,5R)-2-(2-(2-(2-hydroxyethoxy)ethoxy)ethoxymethyl)-5-methylpiperazin-1-yl)ethan-1-one], for which the IC50 lay in the range of 3 to 30 µM. Still for that read-out and setting: next, `CN[C@@H](C)C(=O)N[C@H](C(=O)N1CCN(C(=O)c2ccc3c(c2)cc(C)n3CCOCCOCCOCCO)CC1)C1CCCCC1` [Example 70, (S)—N—((S)-1-Cyclohexyl-2-(4-(1-(2-(2-(2-(2-hydroxyethoxy)ethoxy)ethoxy)ethyl)-2-methyl-1H-indole-5-carbonyl)piperazin-1-yl)-2-oxoethyl)-2-(methylamino)propanamide]: 0.3 to 3 µM; `C[C@@H]1CN(CC(=O)N2CCN(C(=O)c3cc4cc(F)c(F)cc4n3C)C[C@H]2C)[C@@H](COCCOCCOCCOCCO)CN1` [Example 65, 1-((R)-4-(5,6-Difluoro-1-methyl-1H-indole-2-carbonyl)-2-methylpiperazin-1-yl)-2-((2R,5R)-2-(13-hydroxy-2,5,8,11-tetraoxatridecyl)-5-methylpiperazin-1-yl)ethan-1-one]: 3 to 30 µM.

With `CN[C@@H](C)C(=O)N[C@H](C(=O)N1C[C@H]2CC[C@@H]1CN2C(=O)c1cc2cc(F)c(F)cc2n1C)C1CCCCC1` [Example 59, (2S)-N-((1S)-1-cyclohexyl-2-(5-((5,6-difluoro-1-methyl-1H-indol-2-yl)carbonyl)-2,5-diazabicyclo[2.2.2]octan-2-yl)-2-oxoethyl)-2-(methylamino)propanamide], the IC50 is 3 to 30 µM. On to `CN[C@@H](C)C(=O)N[C@H](C(=O)N1CCN(C(=O)c2cc3c(OCCOCCOCCOCCO)c(F)c(F)cc3n2C)CC1)C1CCCCC1` [Example 68, (S)—N—((S)-1-Cyclohexyl-2-(4-(5,6-difluoro-4-(2-(2-(2-(2-hydroxyethoxy)ethoxy)ethoxy)ethoxy)-1-methyl-1H-indole-2-carbonyl)piperazin-1-yl)-2-oxoethyl)-2-(methylamino)propanamide], for which the IC50 is 0.3 to 3 µM.

The experiment is the same for the next values; noted with them: test compound 3 μM; first symbol of the cell; read-out: XIAP binding inhibition rate when the concentration of the test compound is 3 μM.
In the case of `CN[C@@H](C)C(=O)N[C@H](C(=O)N1CCN(C(=O)c2cc3cccnc3n2C)CC1)C1CCCCC1` [Example 13, (S)-N-((S)-1-cyclohexyl-2-(4-(1-methyl-1H-pyrrolo[2,3-b]pyridine-2-carbonyl)piperazin-1-yl)-2-oxoethyl)-2-(methylamino)propanamide], the inhibition at 3 µM was more than 25%.

On to `CN[C@@H](C)C(=O)N[C@H](C(=O)N1CCN(C(=O)c2ccn3cc(C)nc3c2)CC1)C1CCCCC1` [Example 21, (S)-N-((S)-1-cyclohexyl-2-(4-(2-methylimidazo[1,2-a]pyridine-7-carbonyl)piperazin-1-yl)-2-oxoethyl)-2-(methylamino)propanamide], for which the inhibition at 3 µM is more than 25%.

As for `CN[C@@H](C)C(=O)N[C@H](C(=O)N1CCN(C(=O)c2cc3ccc(OC)cc3n2C)CC1)C1CCC(F)(F)CC1` [Example 42, (S)—N—((S)-1-(4,4-Difluorocyclohexyl)-2-(4-(6-methoxy-1-methyl-1H-indole-2-carbonyl)piperazin-1-yl)-2-oxoethyl)-2-(methylamino)propanamide Hydrochloride], the inhibition at 3 µM is more than 75%. The same measure, in the same setting: next, `CN[C@@H](C)C(=O)N[C@H](C(=O)N1CCN(C(=O)c2cc3cc(F)ccc3n2CC(=O)NCCOCCOCCOCCNC(=O)C[C@@H]2N=C(c3ccc(Cl)cc3)c3c(sc(C)c3C)-n3c(C)nnc32)CC1)C1CCCCC1` [Example 77, (S)-N-((S)-2-(4-(1-(17-((S)-4-(4-chlorophenyl)-2,3,9-trimethyl-6H-thieno[3,2-f][1,2,4]triazolo[4,3-a][1,4]diazepin-6-yl)-2,16-dioxo-6,9,12-trioxa-3,15-diazaheptadecyl)-5-fluoro-1H-indole-2-carbonyl)piperazin-1-yl)-1-cyclohexyl-2-oxoethyl)-2-(methylamino)propanamide]: more than 25%; `CN[C@@H](C)C(=O)N[C@H](C(=O)N1CCN(C(=O)c2c(C(=O)NCCOCCOCCN=[N+]=[N-])c3ccc(OC)cc3n2C)CC1)C1CCCCC1` [Example 61, N-(2-(2-(2-Azidoethoxy)ethoxy)ethyl)-2-(4-((S)-2-cyclohexyl-2-((S)-2-(methylamino)propanamido)acetyl)piperazine-1-carbonyl)-6-methoxy-1-methyl-1H-indole-3-carboxamide]: more than 75%; `CN[C@@H](C)C(=O)N[C@H](C(=O)N1CCN(C(=O)c2c(C=O)c3cc(F)ccc3n2C)CC1)C1CCCCC1` [Example 35, (S)—N—((S)-1-Cyclohexyl-2-(4-(5-fluoro-3-formyl-1-methyl-1H-indole-2-carbonyl)piperazin-1-yl)-2-oxoethyl)-2-(methylamino)propanamide Hydrochloride]: more than 75%. For `COc1ccc2cc(C(=O)N3CCN(C(=O)CN4C[C@@H](C)NC[C@@H]4CN4CCOC[C@H]4C)CC3)n(C)c2c1` [Example 36, 1-(4-(6-Methoxy-1-methyl-1H-indole-2-carbonyl)piperazin-1-yl)-2-((2R,5R)-5-methyl-2-(((R)-3-methylmorpholino)methyl)piperazin-1-yl)ethan-1-one], the inhibition at 3 µM was more than 75%.
